These are literature values, as cited in patent US11571414B2, “Methods of treating respiratory illnesses, alleviating inflammation and visceral pain, and alleviating opioid addiction while suppressing withdrawal symptoms” (priority 2019, dated 2023).

The data set has as its system μ-opioid receptor and the nociception receptor. To be noted: nonhuman primates.

For `CC(C)C1CCC(N2CCC3(CC2)C(=O)N(CCNS(N)(=O)=O)Cc2ccccc23)CC1` (centres unmarked) [AT-121], the addictive effects entry is “suppresses the addictive effects” and the analgesic effects entry is “morphine-like analgesic effects”.
